The text below walks through data of publication PMC5372685, “Passage through the Ocular Barriers and Beneficial Effects in Retinal Ischemia of Topical Application of PACAP1-38 in Rodents” (International Journal of Molecular Sciences, 2017).

Details of data set [1]: species or system mice. As to conditions: mouse, in vivo. How it is done:
Mice were anesthetized with urethane and administered PACAP1-38 as an eye drop (1 × 10^6 cpm/eye in benzalkonium-chloride). Serum, whole brain, and eyes were collected 10 or 60 min after the eye drops were administered. The whole brain and eyes were washed in ice-cold PBS. Blood was allowed to clot, centrifuged at 5400× g for 10 min, and 50 μL of the serum obtained was added to 200 μL of 1% BSA in Lactated Ringers' (LR) solution. This mixture was added to 250 μL of 30% trichloroacetic acid, vortexed, and centrifuged for 10 min at 5400× g. Brains and eyes were homogenized separately in 0.5 mL of 1% BSA-LR with a bead beater for 30 s at 4800 rpm × 2 on ice. Samples were transferred to a microfuge tube and centrifuged at 10,000× g for 20 min and a portion of the resulting supernatant added to an equal volume of 30% trichloroacetic acid, vortexed, and centrifuged at 5400× g for 10 min. Resulting supernatant (S) and precipitate (P) from the serum, whole brain, and eyes were counted separately and the percent of radioactivity which could be precipitated with acid (% […]) was calculated using: % […] = 100(P)/(S + P). To correct for any degradation that might have occurred during the processing for acid precipitation, we added 125I-PACAP1-38 to non-radioactive arterial whole blood, whole brain, and eyes, and processed as above. Biological samples were corrected for degradation during processing by dividing their values by the processing control values.

Data set [2] deals with monosodium glutamate-induced excitotoxic lesions of the retina. Conditions: intravitreal injection; cited from earlier work. An excerpt:
(§1) VIP, the peptide with the closest structural similarity ...

The subject of data set [3] is ocular barriers and retinal lesion. As to conditions: eye drops dissolved in benzalkonium-chloride; cited from earlier work. The text has this: The present results are in accordance with our recent observations with PACAP1-27 eye drops.
Data set [4] concerns dipeptidyl-peptidase. Conditions: cited from earlier work. The text has this:
(§2) Our present study, together with the previous study on PACAP1-27, highlights the potential therapeutic use of PACAP in the form of eye drops to treat retinal diseases. The novelty of our present results is that PACAP1-38, the most commonly occurring form of the peptide, exerts a retinoprotective effect similarly to PACAP1-27. Although most actions of PACAP1-27 and PACAP1-38 are similar or the same, several differences are also known. In most studies, PACAP1-27 binds to the receptors with less affinity, leading to less well-pronounced effects at the same concentration as PACAP1-38 [6, 36]. T ...

Data set [5] relates to retinoblastoma cells. As to conditions: high concentrations; cited from earlier work.
Excerpt: as §2

The subject of data set [6] is LH surge. As to conditions: intracerebroventricular administration; cited from earlier work.
Excerpt: as §2

Data set [7] concerns ischemic retinal lesion. Conditions: cited from earlier work.
Excerpt: as §1

For data set [8], the system named is Müller glial cells (GFAP). Put plainly: GFAP immunohistochemistry of Müller glial cell activation after BCCAO. As to conditions: BCCAO rats, eye drops 1 µg/drop twice a day for 5 days, 2 weeks after ischemia, n = 4; p < 0.05. In kind it is in vivo, Wistar rats. How it is done:
Wistar rats (n = 20:n = 12 for histological analysis, n = 8 for immunohistochemical analysis) weighing 250–300 g were subjected to permanent ligation of both common carotid arteries. The animals were bred and kept in the Animal Facility of the University of Pecs, Medical School. They were fed and watered ad libitum, under light/dark cycles of 12/12 h. All procedures were in accordance with institutional guidelines (ethical permission No: BA02/2000-31/2011, University of Pecs). Under isoflurane anesthesia, both common carotid arteries were exposed through a midline cervical incision and ligated with a 3-0 filament. Directly after the operation within 1 min, the right eye was treated with PACAP1-38 eye drops (1 µg/drop) (PACAP was synthesized at the Department of Medical Chemistry, University of Szeged, Szeged, Hungary). […] The left eye served as a control, treated only with the vehicle. A group of animals served as the sham-operated group that underwent anesthesia and all steps of the surgical procedure except ligation of the carotid arteries. […]
For immunohistochemical analysis, 2 weeks after the induction of ischemia, animals (n = 4 sham, n = 4 sham + PACAP1-38 and n = 4 BCCAO; n = 4 BCCAO + PACAP1-38 retinas) were sacrificed with 120 mg/kg pentobarbital (Nembutal, Sanofi-Phylaxia, Budapest, Hungary). […] Digital photographs were taken with a Nikon Eclipse Ci fluorescence microscope. […]

The conditions of data set [9]: mouse, in vivo.
Procedure: PACAP1-38 was labeled with 125I using the lactoperoxidase method, as previously described with PACAP1-27 [35]. Briefly, 10 µg of PACAP1-38 (dissolved in 0.25 M chloride free phosphate buffer) was mixed with 30 µL of 0.4 M Na acetate (pH 5.6), 10 µL of lactoperoxidase (10 µg/mL dissolved in 0.1 M Na acetate pH 5.6), and 2 mCi of 125I. The reaction was started by adding 10 µL 30% H2O2 solution (prepared by adding 2 µL H2O2 in 30 ml deionized (dI) H2O). Ten minutes later, an additional 10 µL of the 30% H2O2 solution was added and the reaction was allowed to progress 10 min more. At the end of this second 10 min incubation, the reaction solution was purified with high performance liquid chromatography (HPLC, Shimadzu USA Manufacturing Inc., Columbia, MD, USA) using a C18 column (P.J. Cobert Associates, Inc., St. Louis, MO, USA).
The PACAP1-38 fraction collected from the HPLC was evaporated overnight in a fume hood using constant airflow to evaporate off the 0.1% trifluoroacetic acid in methanol solution that the fraction was collected in. The dried fraction was resuspended in 1% BSA Lactated Ringers’ solution and an acid precipitation was completed to assess the purity of the PACAP1-38 fraction. The acid precipitation was completed with 15% trichloroacetic acid. The percent of radioactivity precipitated was calculated using the following formula: 100 × [(CPMpellet)/(CPMpellet + CPMsupernatant)]. […] A 1 × 10^6 cpm solution was prepared in a 10 µL volume of benzalkonium-chloride. A 10 µL drop was placed on each eye delivering 1 × 10^6 cpm per eye. The two eyes were pooled together for analysis.
An amount of 1 × 10^6 cpm/eye in benzalkonium-chloride of radioactively labeled PACAP1-38 was administered once ocularly to male CD-1 mice. Mice were sacrificed at time points between 5 and 120 min post administration (5, 30, 60, and 120 min). The eye was dissected into the cornea, retina, and vitreous humor, and the brain and blood were collected from the carotid artery, and the eyes and whole brain removed. Levels of radioactively labeled PACAP1-38 were measured in each tissue for this analysis. Mice (n = 3) were used at each time point. The collected whole blood was allowed to clot at room temperature, centrifuged at 5400× g for 10 min at 4 °C, and 50 µL of the resulting serum was removed for use. The whole brain was collected and the eye dissected into the cornea, retina, and vitreous humor. The level of radioactivity in each of the regions and the serum was measured in a Wizard2 Automatic Gamma Counter (PerkinElmer, Waltham, MA, USA). The percentage of injected dose present in a milliliter of serum (%Inj/mL) and the percentage of the injected dose taken up per gram of tissue (%Inj/g) was calculated as previously described [55, 56].
Data set [10] relates to retinal layers in BCCAO-induced retinal hypoperfusion. Put plainly: Retina morphology and morphometry after permanent bilateral common carotid artery occlusion (BCCAO). In kind it is in vivo, Wistar rats. How it is done:
Wistar rats (n = 20:n = 12 for histological analysis, n = 8 for immunohistochemical analysis) weighing 250–300 g were subjected to permanent ligation of both common carotid arteries. The animals were bred and kept in the Animal Facility of the University of Pecs, Medical School. They were fed and watered ad libitum, under light/dark cycles of 12/12 h. All procedures were in accordance with institutional guidelines (ethical permission No: BA02/2000-31/2011, University of Pecs). Under isoflurane anesthesia, both common carotid arteries were exposed through a midline cervical incision and ligated with a 3-0 filament. Directly after the operation within 1 min, the right eye was treated with PACAP1-38 eye drops (1 µg/drop) (PACAP was synthesized at the Department of Medical Chemistry, University of Szeged, Szeged, Hungary). […] The left eye served as a control, treated only with the vehicle. A group of animals served as the sham-operated group that underwent anesthesia and all steps of the surgical procedure except ligation of the carotid arteries. Rats were treated twice a day with one drop, for 5 consecutive days.
Rats (n = 3 sham, n = 3 sham + PACAP1-38, n = 9 BCCAO, n = 9 BCCAO + PACAP1-38 retinas) were sacrificed with an overdose of anesthetic 2 weeks after BCCAO and eyes were processed for histological analysis. Histological analysis was performed as described previously. Briefly, removed retinas were dissected in phosphate buffered saline (PBS), fixed in 4% paraformaldehyde dissolved in 0.1 M phosphate buffer (PB), embedded in Durcupan ACM resin, and two-µm-thick sections were stained with toluidine blue (Sigma, Budapest, Hungary). Four tissue blocks obtained from at least three rats were prepared and central retinal areas within 1 mm from the optic nerve were used (n = 5 measurements from one tissue block). The following parameters were measured on digital photographs taken with a Nikon Eclipse camera using the Spot program: cross-section from the outer limiting membrane (OLM) to the inner limiting membrane (ILM), and width of all retinal layers (outer nuclear layer-ONL, outer plexiform layer-OPL, inner nuclear layer-INL, inner plexiform layer-IPL). We also counted the number of cells in the ganglion cell layer (GCL). Results are presented as mean ± SEM. Statistical comparisons were made using the two-way ANOVA followed by Fischer’s post hoc analysis.

Ends that are not written are not given here.

As to “125I-PACAP1-38: PACAP1-38 labeled with 125I using the lactoperoxidase method”, in data set [1], the “Percentage of acid precipitation, Eye, 10 min” value is 52.73 ± 2.35%; the “Percentage of acid precipitation, Eye, 60 min” value is listed as 48.24 ± 3.39%; the “Percentage of acid precipitation, Serum, 10 min” value came to 25.57 ± 25.57%; the “Percentage of acid precipitation, Serum, 60 min” value is given as 0 ± 0%. In addition, in data set [1], the “Percentage of acid precipitation, Whole Brain, 10 min” value was 104.71 ± 17.72%; the “Percentage of acid precipitation, Whole Brain, 60 min” value is reported as 75.09 ± 41.13%; the “degradation in the serum after ocular administration” value was “almost completely degraded by 5 min”.
For the substance “PACAP1-27: the shorter biologically active form of PACAP [reference compound]”, the “retinoprotection in monosodium glutamate-induced excitotoxic lesions” value (“retinoprotection” below) in data set [2] is given as “same degree of retinoprotection”. For the same substance, the “passage through ocular barriers and effect on retinal lesion” value in data set [3] is “passes through the mouse ocular barriers from the corneal surface to the retina, and ameliorates the retinal lesion”. In addition, the “metabolic stability in the serum against dipeptidyl-peptidase” value in [4] is “more stable due to the resistance against dipeptidyl-peptidase reaction”. Further, the “viability of retinoblastoma cells” value in data set [5] is recorded as “negligible effects”. The “effect on LH surge” value in data set [6] is reported as “opposite reaction”.
In the case of “PACAP6-27: PACAP receptor antagonist (FTDSYSRYRKQMAVKKYLAAVL; ends and bridges not checked; UniProt P18509 137-158, looked up, fragment)”, in data set [2], the “retinoprotection” value is reported as “further increased the excitotoxic damage”.
With “PACAP6-38: PACAP receptor antagonist (FTDSYSRYRKQMAVKKYLAAVLGKRYKQRVKNK; ends and bridges not checked; UniProt P18509 137-169, looked up, fragment)”, in data set [2], the “retinoprotection” value was “further increased the excitotoxic damage”.
For the substance “VIP: the peptide with the closest structural similarity to PACAP”, the “concentration needed for the same degree of protection as PACAP in ischemic retinopathy” value in data set [7] is reported as “ten times higher”.
Turning to glucagon, the “protective effects in ischemic retinal lesion” value in data set [7] is listed as “do not exert protective effects”.
On to “pituitary adenylate cyclase activating polypeptide [PACAP1-38]”, for which, in data set [8], the “GFAP upregulation in Müller glial cells” value is given as “attenuated the GFAP upregulation”. Also, the “retinoprotection” value in [2] was “same degree of retinoprotection”. For the same substance, in data set [1], the “Percentage of acid precipitation, Whole Brain, 10 min” value was 104.71 ± 17.72%; the “Percentage of acid precipitation, Whole Brain, 60 min” value amounted to 75.09 ± 41.13%; the “intact peptide in the eye” value is “about 50%”. Moreover, the “metabolic stability in the serum against dipeptidyl-peptidase” value in data set [4] is on record as “rapidly degraded in the serum by dipeptidyl-peptidase”. Further, the “viability of retinoblastoma cells” value in [5] was “reduced viability”. Moreover, the “effect on LH surge” value in [6] was “inhibition of the LH surge”. Further, in data set [9], the “clearance into the blood stream (serum)” value is on record as “increased clearance into the blood stream after 120 min”; the “detection of radioactivity after ocular application” value is “present in the eye, the brain, and the serum five minutes after application”; the “level in the whole brain, time course” value is “detected after 5 min in the whole brain (Figure 4D) and levels remained stable throughout the observation time”; the “transport across the cornea, time course” value is reported as “increasing transport across the cornea over the time course of the study”. Besides, the “uptake in the retina, time course” value in [9] was “increased to 30 min and plateaued”. In addition, the “OLM–ILM (outer limiting membrane–inner limiting membrane) distance, reduction compared to sham controls” value in [10] (BCCAO rats, eye drops 1 µg/drop in 0.005% benzalkonium-chloride, twice a day for 5 days, 2 weeks after ligation, BCCAO vehicle eye 49.7%, p < 0.001, n = 9 retinas) is reported as 40.6%. In data set [10] (as E1, BCCAO vehicle eye 36.5%, no statistically significant attenuation), the “outer nuclear layer (ONL) thickness, reduction” value was determined as 37.7%. Moreover, in data set [10] (as E1, BCCAO vehicle eye 38.5%, p < 0.001), the “inner nuclear layer (INL) thickness, reduction” value is 30.5%. Besides, the “number of cells in the ganglion cell layer (GCL), decrease” value in data set [10] (as E1, BCCAO vehicle eye 52.4%, p < 0.05) stood at 25.9%. For the same substance, the “outer plexiform layer (OPL) thickness, reduction” value in [10] (as E1, BCCAO vehicle eye 53.0%, no statistically significant attenuation) worked out at 48.2%. Also, the “inner plexiform layer (IPL) thickness, reduction” value in data set [10] (as E1, BCCAO vehicle eye 64.8%, p < 0.05) is 38.2%. Further, the “effect on retinal layers in sham animals” value in [10] (sham-operated rats, eye drops 1 µg/drop in benzalkonium, n = 3) was “did not result in changes in any of the retinal layers”.
As to “pituitary adenylate cyclase activating polypeptide [PACAP]”, in data set [9], the “serum and brain levels in comparison to ocular levels” value is “negligible in comparison to ocular levels”.
On to secretin, for which the “protective effects in ischemic retinal lesion” value in data set [7] was “do not exert protective effects”.
